Measurements as given in patent publication US8093386B2, “Thioaryl substituted inhibitors of zinc proteases and their use” (Bracco Imaging S.p.A, priority 2006, dated 2012).

Assays:
Format in all cases: biochemical
MMP-2 = target: T1, MMP-2 (Homo sapiens, UniProt P08253); assay: In vitro fluorometric inhibition assay of MMPs: MMP-2
T1 construct: gift of Prof; Gillian Murphy (Oncology Department, Cambridge University, UK)
T1 sequence (P08253 110-660): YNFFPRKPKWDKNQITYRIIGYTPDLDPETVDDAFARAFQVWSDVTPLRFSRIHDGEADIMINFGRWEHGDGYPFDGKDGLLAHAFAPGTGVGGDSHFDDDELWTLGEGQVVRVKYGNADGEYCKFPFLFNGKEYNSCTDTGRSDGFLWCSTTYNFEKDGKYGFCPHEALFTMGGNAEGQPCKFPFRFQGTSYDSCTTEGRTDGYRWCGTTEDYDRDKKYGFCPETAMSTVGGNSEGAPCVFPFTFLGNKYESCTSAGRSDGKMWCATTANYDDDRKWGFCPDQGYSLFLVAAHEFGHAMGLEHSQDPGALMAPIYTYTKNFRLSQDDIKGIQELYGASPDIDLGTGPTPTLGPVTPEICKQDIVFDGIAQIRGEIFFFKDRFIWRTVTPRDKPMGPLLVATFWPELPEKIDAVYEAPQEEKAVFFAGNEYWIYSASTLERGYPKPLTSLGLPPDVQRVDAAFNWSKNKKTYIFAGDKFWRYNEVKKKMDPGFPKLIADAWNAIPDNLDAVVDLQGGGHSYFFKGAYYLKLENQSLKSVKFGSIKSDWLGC
Description: (§1) Analysis of the In Vitro Inhibition Activity of Zinc Metalloproteinases: In Vitro Inhibition of MMMPs
(§2) The human recombinant Progelatinase A (pro-MMP-2), B (pro-MMP-9), MMP-14cd and MMP-16cd, were provided by Prof. Gillian Murphy (Oncology Department, Cambridge University, UK); pro-MMP-1, pro-MMP-3, pro-MMP-7, pro-MMP-8, pro-MMP-13 and pro-MMP-14 were bought from Calbiochem. The proenzymes were activated immediately before the use with p-aminophenylmercuric acetate (APMA 2 mM for 1 h at 37° C. for MMP-1, MMP-2 and MMP-8, 1 mM for 1 h at 37° C. for MMP-9 and MMP-7, 1 mM for 30 min at 37° C. for MMP-13). Pro-MMP-14 and pro-MMP-3 were activated with trypsin 5 μg/ml for 15 min at 37° C. followed the soybean trypsin inhibitor (SBTI) 23 μg/ml for pro-MMP-14 and 62 μg/ml for pro-MMP-3. The catalytic domains of MMP-14 and MMP-16 were utilized without activation.
(§3) For the assay measurements, the stock solutions of the inhibitor (DMSO, 100 mM) were further diluted up to 7 different concentrations (0.01 nM-300 μM) for each MMP, in the buffer for the fluorometric assay (FAB: Tris 50 mM, pH=7.5, NaCl 150 mM, CaCl2 10 mM, Brij 35 0.05% and DMSO 1%). The solutions of activated enzyme (final concentrations 2.9 nM for MMP-2, 2.7 nM for MMP-9, 2.4 nM for MMP-7, 1 nM for MMP-14 and MMP-3, 1.5 nM for MMP-8 and MMP-16cd, 0.84 nM for MMP-14cd, 0.66 nM for MMP-13 and 0.20 nM for MMP-1) and of inhibitor were incubated in the assay buffer for 4 h at 25° C. After the addition of solution of fluorogenic substrate 200 μM Mca-Arg-Pro-Lys-Pro-Val-Glu-Nva-Trp-Arg-Lys(Dnp)-NH2 (Sigma) for MMP-3 and Mca-Lys-Pro-Leu-Gly-Leu-Dpa-Ala-Arg-NH2 (Bachem) for all the other enzymes in DMSO (final concentration 2 μM), the hydrolysis were monitored every 15 sec for 20 min, recording the increase in fluorescence (λex=325 nm, λem=400 nm) with a Molecular Device SpectraMax Gemini XS plates reader. The assays were made in triplicate in a total volume of 200 μl per well on 96 well-plates for microtitolation (Corning, black, NBS). The control wells were without inhibitor.
(§4) The inhibition activity of MMP was expressed in relative fluorescence unit (RFU). The percentage of inhibition was calculated using control reactions without inhibitor.
(§5) IC50 was determined using the formula: Vi/Vo=1/(1+[I]/IC50), wherein Vi is the initial rate of the substrate scission in presence of the inhibitor at the concentration [I] and Vo is the initial rate in the absence of inhibitor. The results were analyzed with the SoftMax Pro software and the GraFit software.

MMP-9 = target: T2, MMP-9 (Homo sapiens, UniProt P14780); assay: In vitro fluorometric inhibition assay of MMPs: MMP-9
T2 construct: gift of Prof; Gillian Murphy (Oncology Department, Cambridge University, UK)
Description: as §1
as §2, with “The proenzymes were activated immediately before the use with p-aminophenylmercuric acetate (APMA 2 mM for 1 h at 37° C. for MMP-1, MMP-2 and MMP-8, 1 mM for 1 h at 37° C. for MMP-9 and MMP-7, 1 mM for 30 min at 37° C. for MMP-13).” left out
as §3, with “The solutions of activated enzyme (final concentrations 2.9 nM for MMP-2, 2.7 nM for MMP-9, 2.4 nM for MMP-7, 1 nM for MMP-14 and MMP-3, 1.5 nM for MMP-8 and MMP-16cd, 0.84 nM for MMP-14cd, 0.66 nM for MMP-13 and 0.20 nM for MMP-1) and of inhibitor were incubated in the assay buffer for 4 h at 25° C.” left out
as §4, §5

MMP-14 = target: T3, MMP-14 (Homo sapiens, UniProt P50281); assay: In vitro fluorometric inhibition assay of MMPs: MMP-14
T3 construct: purchased Calbiochem
Description: as §1, §2, §3, §4, §5

T2 sequence (P14780 107-707 limits assumed): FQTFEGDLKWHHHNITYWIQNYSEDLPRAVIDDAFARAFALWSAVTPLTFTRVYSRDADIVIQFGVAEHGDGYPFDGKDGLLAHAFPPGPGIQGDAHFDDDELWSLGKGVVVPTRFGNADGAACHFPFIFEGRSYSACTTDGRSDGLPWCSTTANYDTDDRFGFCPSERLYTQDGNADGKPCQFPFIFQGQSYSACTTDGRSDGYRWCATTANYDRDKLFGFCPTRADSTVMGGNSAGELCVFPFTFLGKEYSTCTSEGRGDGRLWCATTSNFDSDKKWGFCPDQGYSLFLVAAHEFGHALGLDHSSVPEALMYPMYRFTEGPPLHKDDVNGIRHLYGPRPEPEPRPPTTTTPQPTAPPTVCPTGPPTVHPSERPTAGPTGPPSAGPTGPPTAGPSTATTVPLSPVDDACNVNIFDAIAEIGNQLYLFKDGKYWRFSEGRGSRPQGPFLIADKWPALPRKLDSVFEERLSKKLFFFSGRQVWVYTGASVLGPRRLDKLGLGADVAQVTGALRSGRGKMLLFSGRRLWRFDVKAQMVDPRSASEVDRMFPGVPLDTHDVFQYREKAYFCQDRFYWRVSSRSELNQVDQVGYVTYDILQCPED

`COc1ccc(Oc2ccc(S(=O)(=O)c3ccccc3C(=O)NS(C)(=O)=O)cc2)cc1` [Compound 38, 2-(4-(4-methoxyphenoxy)phenylsulphonyl)-N-(methylsulphonyl)benzamide] was tested, and the IC50 (MMP-2; Table III, cells marked (*)) was 20.5 ± 2.1 µM, the IC50 (MMP-9; Table III, cells marked (*)) was 101 ± 5.9 µM and the IC50 (MMP-14; Table III, cells marked (*)) was 528 ± 58.1 µM.
`COc1ccc(Oc2ccc(Sc3ccccc3CC(=O)NS(C)(=O)=O)cc2)cc1` [Compound 39, 2-(2-(4-(4-methoxyphenoxy)phenylthio)phenyl)-N-(methylsulphonyl)acetamide] was tested, and the IC50 (MMP-2; Table III, cells marked (*)) was 183 ± 18.4 µM, the IC50 (MMP-9; Table III, cells marked (*)) was 106 ± 23.6 µM and the IC50 (MMP-14; Table III, cells marked (*)) was 272 ± 18.7 µM.
`COc1ccc(Oc2ccc(S(=O)(=O)c3ccccc3CC(=O)NS(C)(=O)=O)cc2)cc1` [Compound 43, 2-(2-(4-(4-methoxyphenoxy)phenylsulphonyl)phenyl)-N-(methylsulphonyl)acetamide] was tested, and the IC50 (MMP-2; Table III, cells marked (*)) was 78.6 ± 6.3 µM, the IC50 (MMP-9; Table III, cells marked (*)) was 47.3 ± 2 µM and the IC50 (MMP-14; Table III, cells marked (*)) was 260 ± 30.1 µM.
In the case of `COc1ccc(-c2ccc(Sc3ccccc3C(=O)O)cc2)cc1` [Compound 47, 2-(4′-methoxybiphenyl-4-ylthio)benzoic acid], the IC50 (MMP-2; Table II, cells marked (*)) is reported as 62.5 ± 6.27 µM, the IC50 (MMP-9; Table II, cells marked (*)) is reported as 83.5 ± 5.87 µM and the IC50 (MMP-14; Table II, cells marked (*)) is reported as 116 ± 9.79 µM.
`COc1ccc(-c2ccc(Sc3ccccc3C(=O)NS(C)(=O)=O)cc2)cc1` [Compound 48, 2-(4′-methoxybiphenyl-4-ylthio)-N-(methylsulphonyl)benzamide] was tested, and the IC50 (MMP-2; Table II, cells without (*)) was 41.8 ± 5.1 µM and the IC50 (MMP-14; Table II, cells without (*)) was 73.1 ± 7.9 µM.
`COc1ccc(-c2ccc(Sc3ccccc3C(C)C(=O)O)cc2)cc1` (centres unmarked) [Compound 54] showed an IC50 (MMP-2; Table II, cells marked (*)) of 0.159 ± 0.0068 µM and an IC50 (MMP-14; Table II, cells marked (*)) of 9.95 ± 0.916 µM.
Work on `COc1ccc(-c2ccc(Sc3ccccc3C(C)C(=O)NO)cc2)cc1` (centres unmarked) [Compound 56a, N-hydroxy-2-(2-(4′-methoxybiphenyl-4-ylthio)phenyl)propanamide] yielded an IC50 (MMP-2; Table II, cells marked (*)) of 0.0272 ± 0.0016 µM and an IC50 (MMP-14; Table II, cells marked (*)) of 6.5 ± 0.597 µM.
`COc1ccc(-c2ccc(Sc3ccccc3C(C)C(=O)NS(C)(=O)=O)cc2)cc1` (centres unmarked) [Compound 57, 2-(2-(4′-methoxybiphenyl-4-ylthio)phenyl)-N-(methylsulphonyl)propanamide] was tested, and the IC50 (MMP-2; Table II, cells without (*)) was 65.8 ± 5.8 µM, the IC50 (MMP-9; Table II, cells without (*)) was 73.7 ± 7.8 µM and the IC50 (MMP-14; Table II, cells without (*)) was 156 ± 9.5 µM.
Compound `COc1ccc(Oc2ccc(S(=O)(=O)c3ccccc3CP(=O)(O)O)cc2)cc1` [Compound 72, 2-(4-(4-methoxyphenoxy)phenylsulphonyl)benzyl phosphonic acid] has an IC50 (MMP-2; Table III, pH 6.7) of 0.571 ± 0.045 µM, an IC50 (MMP-9; Table III, pH 6.7) of 0.168 ± 0.027 µM and an IC50 (MMP-14; Table III, pH 6.7) of 1.95 ± 0.212 µM.
`COc1ccc(-c2ccc(S(=O)(=O)c3ccccc3CP(=O)(O)O)cc2)cc1` [Compound 86, 2-(4′-methoxybiphenyl-4-ylsulphonyl)benzylphosphonic acid] showed an IC50 (MMP-2; Table II, cells marked (*)) of 0.384 ± 0.031 µM, an IC50 (MMP-9; Table II, cells marked (*)) of 2.47 ± 0.212 µM and an IC50 (MMP-14; Table II, cells marked (*)) of 8.33 ± 0.511 µM.
With `COc1ccc(-c2ccc(S(=O)(=O)c3ccccc3C(=O)NS(C)(=O)=O)cc2)cc1` [Compound 106, 2-(4′-methoxybiphenyl-4-yl-sulphonyl)-N-(methylsulphonyl)benzamide] the IC50 (MMP-2; Table II, cells without (*)) was 22.5 ± 2.1 µM and the IC50 (MMP-14; Table II, cells without (*)) was 64.7 ± 2.9 µM.
